The source of these data is ChEMBL document CHEMBL6120937, “PROTAC technology: From drug development to probe technology for target deconvolution” (Eur J Med Chem, 2024).

The nature of test [1]: Inhibition of hedgehog in […] cells. In kind it is cell-based.
The subject of the next test is Jurkat. The test can be described thus: Antiproliferative activity against human Jurkat cells assessed as reduction in cell viability incubated for 72 hrs by CCK-8 assay. In kind it is functional, cell-based. A general note: Tetrazolium assays rely on reduction of a dye to a coloured formazan, in cell work by metabolically active cells.
A further test has as its system HCT-116. The test can be described thus: Cytotoxicity against human HCT-116 cells assessed as reduction in cell growth incubated for 72 hrs by CCK-8 assay. It counts as functional, cell-based. The following applies: HCT-116, 72 h.
In a further test the test system is RAW264.7. Description: Anti-inflammatory activity in mouse RAW264.7 cells assessed as inhibition of LPS-induced NO production incubated for 24 hrs by Griess reagent based analysis. The following applies: RAW264.7, 24 h. It counts as functional, cell-based. For orientation: Griess reagent forms a coloured azo dye with nitrite.

Consider `COCCOC(=O)C1=C(c2cccc(OCc3cn(CCCCCCOc4cccc5c4C(=O)N(C4CCC(=O)NC4=O)C5=O)nn3)c2)C2=C(CC(c3ccccc3OC)CC2=O)NC1C` (centres undefined), for which, in test [1], the IC50 (in general, the midpoint of a concentration-inhibition curve) is 6.21 µM. `CC1=C(O)C(=O)C=C2C1=CC=C1[C@@]2(C)CC[C@@]2(C)[C@@H]3C[C@](C)(C(=O)NCCOCCNc4cccc5c4C(=O)N(C4CCC(=O)NC4=O)C5=O)CC[C@]3(C)CC[C@@]12C` (some centres undefined): the IC50 with Jurkat is 0.25 µM. Turning to `CN1c2ccc(F)cc2C(=O)N2CCc3c([nH]c4ccc(OCCCNC(=O)CCCCCC#Cc5cccc6c5CN(C5CCC(=O)NC5=O)C6=O)cc34)C21` (centres undefined), in the test with HCT-116, the IC50 is 0.02 µM. With `C=C1CCC2C(/C=C(\C)C(=O)[C@@]3(O)C[C@H](C)[C@H](O)C3[C@H]1OCc1cn(CCOCCOCCOCCNc3cccc4c3C(=O)N(C3CCC(=O)NC3=O)C4=O)nn1)C2(C)C` (some centres undefined), in the test with RAW264.7, the IC50 was determined as 8.34 µM.
